ChEMBL document CHEMBL1157964, “Spasmolytic effects of nonprenylated rotenoid constituents of Boerhaavia diffusa roots” (2006)
Calls of active or inactive are those of the source. The rule behind the calls is not given here.

What follows are compounds tested on Ileum (assay: Antispasmodic activity in guinea pig ileum assessed as inhibition of acetylcholine-induced contraction at 1 uM). Conditions: not given.
Type: functional, Cavia porcellus
Set-up: scale not given: the % may be the effect or the level left

Compound | Activity [%]
COC(=O)C1=C(C)NC(C)=C(C(=O)OC)C1c1ccccc1[N+](=O)[O-] [NIFEDIPINE] | 47.3

Each compound was assayed on Ileum (assay: Antispasmodic activity in guinea pig ileum assessed as inhibition of acetylcholine-induced contraction at 30 ug/mL). Conditions: Cavia porcellus.
Type: functional

Compound | Emax at 30 µg/mL [%] | Activity
COc1ccccc1-c1coc2cc(O)c(C)c(O)c2c1=O | 36.8 | –
COc1cc(O)c2c(c1)O[C@@H]1COc3c(O)cccc3[C@@]1(O)C2=O | 19.4 | –
COC1Oc2cc(O)ccc2-c2c1oc1cc(O)c(C)c(O)c1c2=O (stereo not given) | – | inactive
COc1cc2c(c(O)c1C)C(=O)[C@]1(O)c3cccc(O)c3OC[C@H]1O2 | – | inactive
COc1cc2oc3c(c(=O)c2c(O)c1C)-c1cccc(O)c1OC3OC (stereo not given) | – | inactive
O=c1c2c(oc3cc(O)cc(O)c13)C(O)Oc1ccccc1-2 (stereo not given) | – | inactive
COc1cc2oc3c(c(=O)c2c(O)c1C)-c1cccc(O)c1OC3O (stereo not given) [9-O-METHYL-4-HYDROXYBOERAVINONE B] | 100 | –
COc1cc2oc3c(c(=O)c2c(O)c1O)-c1ccccc1OC3O (stereo not given) [9-O-METHYL-10-HYDROXYCOCCINEONE B] | 36.1 | –
Cc1c(O)cc2oc3c(c(=O)c2c1O)-c1ccc(O)cc1OC3O (stereo not given) [BOERAVINONE E] | 100 | –
Cc1c(O)cc2oc3c(=O)oc4cc(O)ccc4c3c(=O)c2c1O [BOERAVINONE F] | 50 | –
COc1cc(O)c2c(=O)c3c(oc2c1)C(OC)Oc1c(O)cccc1-3 (stereo not given) [BOERAVINONE G] | 60 | –
COc1cc2c(c(O)c1OC)C(=O)[C@]1(O)c3ccccc3OC[C@H]1O2 [COCCINEONE E] | 25.2 | –
COc1ccc(Cc2nccc3cc(OC)c(OC)cc23)cc1OC [PAPAVERINE] | 72.3 | –

The compounds below were run on Ileum (assay: Antispasmodic activity in guinea pig ileum assessed as inhibition of acetylcholine-induced contraction at 10 uM). Conditions: not given.
Type: functional, Cavia porcellus
Set-up: scale not given: the % may be the effect or the level left

Compound | Activity [%]
CC(=O)C1=C(O)[C@@H]2[C@H]3c4c[nH]c5cccc(c45)C[C@H]3C(C)(C)N2C1=O [CYCLOPIAZONIC ACID] | 52.3
